Patent publication US20150210641A1, “NOVEL CYTOCHROME P450 INHIBITORS AND THEIR METHOD OF USE” (CORTENDO AB (PUBL), priority 2014, published 2015)

Legend:
Format in all cases: cell-based
recombinant CYP-11 = target: T1, recombinant CYP-11 (Homo sapiens, UniProt P15538); assay: Cyp11 assay: cortisol formation from 11-deoxycortisol in AD293 cells, LC/MS; conditions: AD293 cells stably over-expressing recombinant CYP-11; eight concentrations 10 μM to 4.5 nM
T1 construct: expressed in transfected cells
T1 sequence (P15538 25-503): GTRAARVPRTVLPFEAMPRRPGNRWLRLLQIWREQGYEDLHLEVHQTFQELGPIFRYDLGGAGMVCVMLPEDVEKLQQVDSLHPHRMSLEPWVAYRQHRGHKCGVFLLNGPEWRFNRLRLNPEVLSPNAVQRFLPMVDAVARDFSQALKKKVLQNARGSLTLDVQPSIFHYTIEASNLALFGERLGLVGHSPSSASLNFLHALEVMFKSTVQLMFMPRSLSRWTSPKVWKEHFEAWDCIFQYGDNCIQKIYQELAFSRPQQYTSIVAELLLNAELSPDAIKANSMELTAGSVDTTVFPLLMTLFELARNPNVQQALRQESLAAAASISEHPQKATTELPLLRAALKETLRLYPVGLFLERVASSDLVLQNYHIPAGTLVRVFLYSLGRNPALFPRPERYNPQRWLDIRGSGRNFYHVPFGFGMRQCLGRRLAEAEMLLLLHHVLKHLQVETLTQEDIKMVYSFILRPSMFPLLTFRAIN
Method: Cyp11 assay protocol: AD293 cells that stably over-express recombinant CYP-11 were seeded in 96 well plates coated with poly D-lysine (15,000 cell per well) and incubated at 37° C. for 24 hours in Dulbecco's Modified Eagle Medium (DMEM) with Fetal Bovine Serum (FBS) that is stripped of hormones by charcoal treatment. The media is then removed, the cells are washed once with Phosphate buffer saline solution, and 50 μL Dulbecco's Modified Eagle Medium (DMEM) with Fetal Bovine Serum (FBS) that is stripped of hormones by charcoal treatment is added. Compounds of the disclosure are then added to the wells in eight concentration spanning 10 μM to 4.5 nM, and the plates are incubated for an additional 60 minutes at 37° C. 11-deoxycortisol is then added ([…]) and the plates are incubated for an additional 12 hours at 37° C. After incubation, 50 uL of the supernatant (medium) is transferred into a fresh plate and 150 uL of an acetonitrile solution containing 200 ng/ml of Telmisartan is added. The sample is mixed and then placed in a centrifuge at 2000 rpm for 5 minutes. 100 uL of the supernatant is transferred into a fresh 96 well deep well plate, 100 uL of 1:1 methanol: water was added, the solution was mixed and then analyzed by LC/MS for the presence of cortisol using an Agilent 1200 RRLC/ABSCIEX API4000 LC-MS or Shimadzu Prominance/ABSCIEX API4000 LC-MS to determine IC50s of the compounds of the disclosure.

recombinant CYP-17 = target: T2, recombinant CYP-17 (Homo sapiens, UniProt P05093); assay: Cyp17 assay: 3H-acetic acid release from [21-3H] 17α-hydroxyl-Pregnenolone in AD293 cells; conditions: AD293 cells stably over-expressing recombinant CYP-17; eight concentrations 10 μM to 4.5 nM
T2 construct: expressed in transfected cells
T2 sequence (P05093 1-508): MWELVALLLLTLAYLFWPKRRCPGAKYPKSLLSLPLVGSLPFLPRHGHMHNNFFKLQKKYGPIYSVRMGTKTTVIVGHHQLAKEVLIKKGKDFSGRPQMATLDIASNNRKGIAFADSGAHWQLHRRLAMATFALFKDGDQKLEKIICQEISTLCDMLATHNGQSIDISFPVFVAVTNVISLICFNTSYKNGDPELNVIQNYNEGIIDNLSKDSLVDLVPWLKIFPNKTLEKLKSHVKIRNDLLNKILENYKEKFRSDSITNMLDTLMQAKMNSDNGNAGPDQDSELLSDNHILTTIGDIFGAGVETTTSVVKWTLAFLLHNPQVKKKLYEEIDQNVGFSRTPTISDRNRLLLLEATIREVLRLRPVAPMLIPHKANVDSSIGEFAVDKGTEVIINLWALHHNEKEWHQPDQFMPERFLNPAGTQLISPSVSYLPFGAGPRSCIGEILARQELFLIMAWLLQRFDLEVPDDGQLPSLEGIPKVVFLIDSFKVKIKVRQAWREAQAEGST
Method: Cyp17 assay protocol: AD293 cells that stably over-express recombinant CYP-17 were seeded in 96 well plates coated with poly D-lysine (15,000 cell per well) and incubated at 37° C. for 24 hours in Dulbecco's Modified Eagle Medium (DMEM) with Fetal Bovine Serum (FBS) that is stripped of hormones by charcoal treatment. The media is then removed, the cells are washed once with Phosphate buffer saline solution, and 50 μL Dulbecco's Modified Eagle Medium (DMEM) with Fetal Bovine Serum (FBS) that is stripped of hormones by charcoal treatment is added. Compounds of the disclosure are then added to the wells in eight concentration spanning 10 μM to 4.5 nM, and the plates are incubated for an additional 60 minutes at 37° C. [21-^3H] 17α-hydroxyl-Pregnenolone is then added (50 nCi per well, 31.25 nM) and the plates are incubated for an additional 4 hours at 37° C. The media is then collected, 200 μL of chloroform is added, and the mixture is shaken for 1 hour. The aqueous layer is then separated and analyzed for the presence of ^3H-acetic acid using a Perkin Elmer Topcount NXT to determine IC50s of the compounds of the disclosure.

recombinant CYP-21 = target: T3, recombinant CYP-21 (Homo sapiens, UniProt P08686); assay: Cyp21 assay: 11-deoxycortisol formation from 17-OH Progesterone in AD293 cells, LC/MS; conditions: AD293 cells stably over-expressing recombinant CYP-21; eight concentrations 10 μM to 4.5 nM
T3 construct: expressed in transfected cells
T3 sequence (P08686 1-495): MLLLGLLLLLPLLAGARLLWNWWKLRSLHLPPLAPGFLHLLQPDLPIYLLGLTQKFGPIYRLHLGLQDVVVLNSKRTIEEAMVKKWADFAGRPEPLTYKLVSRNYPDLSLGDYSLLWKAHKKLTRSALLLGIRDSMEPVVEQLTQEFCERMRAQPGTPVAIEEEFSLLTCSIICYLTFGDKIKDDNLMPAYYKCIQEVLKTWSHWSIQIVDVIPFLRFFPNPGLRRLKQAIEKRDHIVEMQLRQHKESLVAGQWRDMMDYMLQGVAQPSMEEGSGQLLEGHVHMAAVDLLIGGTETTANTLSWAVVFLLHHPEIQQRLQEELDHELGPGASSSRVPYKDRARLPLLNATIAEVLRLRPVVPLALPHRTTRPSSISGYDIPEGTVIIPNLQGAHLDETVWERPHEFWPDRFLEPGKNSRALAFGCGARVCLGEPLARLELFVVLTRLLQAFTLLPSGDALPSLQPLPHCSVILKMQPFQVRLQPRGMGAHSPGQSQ
Method: Cyp21 assay protocol: AD293 cells that stably over-express recombinant CYP-21 were seeded in 96 well plates coated with poly D-lysine (10,000 cell per well) and incubated at 37° C. for 24 hours in Dulbecco's Modified Eagle Medium (DMEM) with Fetal Bovine Serum (FBS) that is stripped of hormones by charcoal treatment. The media is then removed, the cells are washed once with Phosphate buffer saline solution, and 50 μL Dulbecco's Modified Eagle Medium (DMEM) with Fetal Bovine Serum (FBS) that is stripped of hormones by charcoal treatment is added. Compounds of the disclosure are then added to the wells in eight concentration spanning 10 μM to 4.5 nM, and the plates are incubated for an additional 60 minutes at 37° C. 17-OH Progesterone is then added ([…]) and the plates are incubated for an additional 45 minutes at 37° C. After incubation, 50 uL of the supernatant (medium) is transferred into a fresh plate and 150 uL of an acetonitrile solution containing 200 ng/ml of Telmisartan is added. The sample is mixed and then placed in a centrifuge at 2000 rpm for 5 minutes.

SMILES: COc1cc(F)ccc1-c1ccc(C(c2ccncc2)N2CCOCC2)cc1 (stereo not drawn) [Entry 17, 4-((4′-fluoro-2′-methoxy-[1,1′-biphenyl]-4-yl)(pyridin-4-yl)methyl)morpholine]
- IC50 (recombinant CYP-11): ≥ 10000 nM
- IC50 (recombinant CYP-17): 28 nM
- IC50 (recombinant CYP-21): ≥ 10000 nM

SMILES: COc1cc(F)ccc1-c1ccc(C(NCCNC(=O)OC(C)(C)C)c2ccncc2)cc1 (stereo not drawn) [Entry 25, tert-butyl(2-(((4′-fluoro-2′-methoxy-[1,1′-biphenyl]-4-yl)(pyridin-4-yl)methyl)amino)ethyl)carbamate]
- IC50 (recombinant CYP-11): 4200 nM
- IC50 (recombinant CYP-17): 31 nM
- IC50 (recombinant CYP-21): 4000 nM

SMILES: COc1cc(F)ccc1-c1ccc(C(F)c2ccncc2)cc1 (stereo not drawn) [Entry 1, 4-[Fluoro-(4′-fluoro-2′-methoxy-biphenyl-4-yl)-methyl]-pyridine]
- IC50 (recombinant CYP-11): ≥ 10000 nM
- IC50 (recombinant CYP-17): 220 nM
- IC50 (recombinant CYP-21): 1500 nM

SMILES: COc1cc(F)ccc1-c1ccc(C(c2ccncc2)N2CCN(C)CC2)cc1 (stereo not drawn) [Entry 20, 1-((4′-fluoro-2′-methoxy-[1,1′-biphenyl]-4-yl)(pyridin-4-yl)methyl)-4-methylpiperazine]
- IC50 (recombinant CYP-11): ≥ 10000 nM
- IC50 (recombinant CYP-17): 107 nM
- IC50 (recombinant CYP-21): ≥ 10000 nM

SMILES: COc1cc(F)ccc1-c1ccc(C(c2ccncc2)N2CCCCC2)cc1 (stereo not drawn) [Entry 18, 4-((4′-fluoro-2′-methoxy-[1,1′-biphenyl]-4-yl)(piperidin-1-yl)methyl)pyridine]
- IC50 (recombinant CYP-11): ≥ 10000 nM
- IC50 (recombinant CYP-17): 770 nM
- IC50 (recombinant CYP-21): ≥ 10000 nM

SMILES: CCN1CCN(C(c2ccncc2)c2ccc(-c3ccc(F)cc3OC)cc2)CC1 (stereo not drawn) [Entry 28, 1-ethyl-4-((4′-fluoro-2′-methoxy-[1,1′-biphenyl]-4-yl)(pyridin-4-yl)methyl)piperazine]
- IC50 (recombinant CYP-11): ≥ 10000 nM
- IC50 (recombinant CYP-17): 117 nM
- IC50 (recombinant CYP-21): ≥ 10000 nM

SMILES: COc1cc(F)ccc1-c1ccc(C(c2ccncc2)N2CCCC2)cc1 (stereo not drawn) [Entry 19, 4-((4′-fluoro-2′-methoxy-[1,1′-biphenyl]-4-yl)(pyrrolidin-1-yl)methyl)pyridine]
- IC50 (recombinant CYP-11): ≥ 10000 nM
- IC50 (recombinant CYP-17): 254 nM
- IC50 (recombinant CYP-21): ≥ 10000 nM

SMILES: COc1cc(F)ccc1-c1ccc(C(c2ccncc2)N2CCN(C3CCCC3)CC2)cc1 (stereo not drawn) [Entry 21, 1-cyclopentyl-4-((4′-fluoro-2′-methoxy-[1,1′-biphenyl]-4-yl)(pyridin-4-yl)methyl)piperazine]
- IC50 (recombinant CYP-11): ≥ 10000 nM
- IC50 (recombinant CYP-17): 900 nM
- IC50 (recombinant CYP-21): ≥ 10000 nM

SMILES: COc1cc(F)ccc1-c1ccc(C(c2ccncc2)N2CCNCC2)cc1 (stereo not drawn) [Entry 30, 1-((4′-fluoro-2′-methoxy-[1,1′-biphenyl]-4-yl)(pyridin-4-yl)methyl)piperazine]
- IC50 (recombinant CYP-11): ≥ 10000 nM
- IC50 (recombinant CYP-17): 1000 nM
- IC50 (recombinant CYP-21): ≥ 10000 nM

SMILES: COc1cc(F)ccc1-c1ccc(C(c2ccncc2)N2CCN(C(C)=O)CC2)cc1 (stereo not drawn) [Entry 27, 1-(4-((4′-fluoro-2′-methoxy-[1,1′-biphenyl]-4-yl)(pyridin-4-yl)methyl)piperazin-l-yl)ethanone]
- IC50 (recombinant CYP-11): ≥ 10000 nM
- IC50 (recombinant CYP-17): 22 nM
- IC50 (recombinant CYP-21): ≥ 10000 nM

SMILES: COc1cc(F)ccc1-c1ccc(C(OC)c2ccncc2)cc1 (stereo not drawn) [Entry 33, 4-((4′-fluoro-2′-methoxy-[1,1′-biphenyl]-4-yl)(methoxy)methyl)pyridine]
- IC50 (recombinant CYP-11): ≥ 10000 nM
- IC50 (recombinant CYP-17): ≥ 10000 nM
- IC50 (recombinant CYP-21): 524 nM

SMILES: COc1cccc(-c2ccc(C(c3ccncc3)N3CCCCC3)cc2)c1 (stereo not drawn) [Entry 31, 4-((3′-methoxy-[1,1′-biphenyl]-4-yl)(piperidin-1-yl)methyl)pyridine]
- IC50 (recombinant CYP-11): ≥ 10000 nM
- IC50 (recombinant CYP-17): 27 nM
- IC50 (recombinant CYP-21): 2400 nM

SMILES: COc1cccc(-c2ccc(C(c3ccncc3)N3CCNCC3)cc2)c1 (stereo not drawn) [Entry 32, 1-((3′-methoxy-[1,1′-biphenyl]-4-yl)(pyridin-4-yl)methyl)piperazine]
- IC50 (recombinant CYP-11): ≥ 10000 nM
- IC50 (recombinant CYP-17): 1170 nM
- IC50 (recombinant CYP-21): ≥ 10000 nM

SMILES: COc1ccc(-c2ccc(C(F)(F)c3ccncc3)cc2)cc1OC [Entry 8]
- IC50 (recombinant CYP-11): ≥ 10000 nM
- IC50 (recombinant CYP-17): 34 nM
- IC50 (recombinant CYP-21): 408 nM
